Earlier results in patent US12553008B2, “Extracting and refining plant cuticular waxes from aqueous dispersion using temperature and pH adjustment” (JENA TRADING APS, priority 2019, dated 2026).
Like-named read-outs stand apart in the source and are kept apart here.

Assays:
[1] = not given; remark: listed apart in the source

| SMILES | Solubility of free fatty acids in water (at 30° C.) [mg/L at 30 °C] | pKa [1] | also measured |
| --- | --- | --- | --- |
| CCCCCCCCCCCC(=O)O [Lauric (C12 saturated), Lauric] | 63 | 5.3 | Solubility of free fatty acids in water (at 45° C.): 72 mg/L at 45 °C |
| CCCCCCCCCCCCCC(=O)O [Myristic (C14 saturated), Myristic] | 24 | 4.9 | Solubility of free fatty acids in water (at 60° C.): 33 mg/L at 60 °C |
| CCCCCCCC/C=C\CCCCCCCC(=O)O [Oleic (C18 mono-unsaturated), oleic acid] | – | – | Solubility of free fatty acids in water (in words, no temperature printed): Insoluble; Solubility of free fatty acids in water (in words, no temperature printed, listed as oleic): very low |
| CCCCCCCCCCCCCCCC(=O)O [Palmitic (C16 saturated), Palmitic] | – | 4.75 | – |
| CCCCCCCCCCCCCCCCCC(=O)O [Stearic (C18 saturated), Stearic] | – | 4.8-4.9 | – |
